Data reported in patent US12448388B2, “PRMT5 inhibitors and uses thereof” (Gilead Sciences, Inc., priority 2023, dated 2025).

Assays:
[1] = tested on: HCT116 MTAP-deleted cell lines; test: Cell viability assay (CellTiter-Glo, 7 days), HCT116 MTAP-deleted; assay type: cell-based; details: Homo sapiens, HCT-116; cell viability assay, HCT116 MTAP-deleted; class symbols; read-out: CC50
Procedure, shortened: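 CC50 values come from 7-day CellTiter-Glo viability measurements on cells exposed to a dose range of PRMT5 inhibitors dispensed from DMSO stocks.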

[2] = tested on: Symmetric Di-methyl Arginine (SDMA) signal (PRMT5 inhibition) in HCT116 MTAP-deleted cells; test: Symmetric di-methyl arginine image-based high content screen assay (SDMA assay), HCT116 MTAP-deleted; assay type: cell-based; details: for EC50 selectivity: HCT116 WT vs HCT116 MTAP-deleted; for EC50: Homo sapiens, HCT-116, HCT116 MTAP-deleted, class symbols
Procedure, shortened: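 HCT116 WT and MTAP-deleted cells (800/well, RPMI 1640 + 10% FBS) treated with compound 3 days at 37 °C; formalin-fixed, stained with anti-SDMA antibody/Alexa 488 plus DAPI. Mean SDMA intensity per DAPI-defined cell imaged; EC50 from 4-parameter logistic fit.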

Row | EC50 selectivity [2] | EC50 [2] [nM] | SMILES | CC50 [1] [nM]
1 | 496 | 1 to 5 | Cc1ncn2c1c(N)nc1ccc(C(=O)N(C)[C@@H]3COc4nc(C(F)(F)F)ccc43)cc12 [Fg-7, (S)-4-amino-N,3-dimethyl-N-(6-(trifluoromethyl)-2,3-dihydrofuro[2,3-b]pyridin-3-yl)imidazo[1,5-a]quinoxaline-8-carboxamide] | 100 to 1000
2 | 255 | > 5 | CN(C(=O)c1ccc2nc(N)n3cncc3c2c1)[C@@H]1COc2cc(C(F)(F)F)ccc21 [Fg-9, (S)-5-amino-N-methyl-N-(6-(trifluoromethyl)-2,3-dihydrobenzofuran-3-yl)imidazo[1,5-c]quinazoline-9-carboxamide] | > 1000
3 | 307 | > 5 | Cc1ncc2c3cc(C(=O)N(C)[C@@H]4COc5cc(C(F)(F)F)ccc54)ccc3nc(N)n12 [Fg-10, (S)-5-amino-N,3-dimethyl-N-(6-(trifluoromethyl)-2,3-dihydrobenzofuran-3-yl)imidazo[1,5-c]quinazoline-9-carboxamide] | > 1000
4 | 225 | > 5 | Cc1ncn2c(N)nc3ccc(C(=O)N(C)[C@@H]4COc5cc(C(F)(F)F)ccc54)cc3c12 [Fg-11, (S)-5-amino-N,1-dimethyl-N-(6-(trifluoromethyl)-2,3-dihydrobenzofuran-3-yl)imidazo[1,5-c]quinazoline-9-carboxamide] | 100 to 1000
5 | 168 | ≤ 1 | Cc1ncn2c1c(N)nc1ccc(C(=O)N(C)C3CCc4nc(C(F)(F)F)ccc43)cc12 (stereo not drawn) [Fg-12, 4-amino-N,3-dimethyl-N-(2-(trifluoromethyl)-6,7-dihydro-5H-cyclopenta[b]pyridin-5-yl)imidazo[1,5-a]quinoxaline-8-carboxamide] | < 100
6 | 207 | ≤ 1 | Cc1ncn2c1c(N)nc1ccc(C(=O)N(C)[C@@H]3COCc4cc(Br)ccc43)cc12 [Fg-13, (S)-4-amino-N-(7-bromoisochroman-4-yl)-N,3-dimethylimidazo[1,5-a]quinoxaline-8-carboxamide] | < 100
7 | 158 | 1 to 5 | Cc1nc(C)n2c1c(N)nc1ccc(C(=O)N(C)[C@@H]3COCc4cc(Br)ccc43)cc12 [Fg-14, (S)-4-amino-N-(7-bromoisochroman-4-yl)-N,1,3-trimethylimidazo[1,5-a]quinoxaline-8-carboxamide] | 100 to 1000
8 | 8 | > 5 | Nc1nc2ccc(C(=O)N(Cc3ccc(C(F)(F)F)cn3)C34CC(C3)C4)cc2c2cncn12 [Fg-15, 5-amino-N-(bicyclo[1.1.1]pentan-1-yl)-N-((5-(trifluoromethyl)pyridin-2-yl)methyl)imidazo[1,5-c]quinazoline-9-carboxamide] | > 1000
9 | 6 | > 5 | Nc1nc2ccc(C(=O)N(Cc3cc4ccccn4n3)C34CC(C3)C4)cc2c2cncn12 [Fg-16, 5-amino-N-(bicyclo[1.1.1]pentan-1-yl)-N-(pyrazolo[1,5-a]pyridin-2-ylmethyl)imidazo[1,5-c]quinazoline-9-carboxamide] | > 1000
10 | 275 | 1 to 5 | Cc1nc(C)n2c1c(N)nc1ccc(C(=O)N(C)[C@@H]3COc4cc(C(F)(F)F)ccc43)cc12 [Fg-18, (S)-4-amino-N,1,3-trimethyl-N-(6-(trifluoromethyl)-2,3-dihydrobenzofuran-3-yl)imidazo[1,5-a]quinoxaline-8-carboxamide] | 100 to 1000
11 | 151 | 1 to 5 | Cc1ncn2c1c(N)nc1ccc(C(=O)N3C[C@@H](C)O[C@@H]4Cc5cc(C(F)(F)F)ccc5[C@@H]43)cc12 [Fg-35, (4-amino-3-methylimidazo[1,5-a]quinoxalin-8-yl)((2R,4aS,9aR)-2-methyl-7-(trifluoromethyl)-2,3,9,9a-tetrahydroindeno[2,1-b][1,4]oxazin-4(4aH)-yl)methanone] | < 100
